Experimental data taken from patent publication US20120156185A1, “NUTRITIONAL COMPOSITIONS COMPRISING CITRUS FIBERS” (HERBAMED LTD., priority 2009, published 2012).
Several values for one entry are separate records, joined by “and”; a condition that tells them apart may be missing. Equal entries are not always repeated.

Test: Oxygen radical absorbance capacity (ORAC) assay
Procedure: ORAC assay for fresh orange crush and dry flake extracts was carried out following the modified procedure of the method previously described by Prior et al (Prior R L. et al. 2003. J Agric Food Chem 5, 3273-3279). This assay measures the ability of antioxidant components in test materials to inhibit the decline in disodium fluorescein (FL) fluorescence that is induced by the peroxyl radical generator 2′,2′-Azobis (2-amidinopropane) dihydrochloride (AAPH). The reaction was obtained on fluorescent plate reader (Synergy HT, Bio-Tek Instruments, Winooski, Vt., USA). The mixture contained in the final assay mixture 200 μL of total volume, FL, 120 μL, […] and AAPH, 60 μL 32 mM final concentration. All reagents were prepared with 75 mM phosphate buffer, pH 7.4. FL, phosphate buffer and samples were pre-incubated at 37° C. for 15 min. The reaction was started by the addition of AAPH. Fluorescence was measured and recorded every 1.5 min at excitation length of 485 nm and emission length of 535 nm, until the fluorescence of the last reading declined to a value of less than or equal to 5% of the first reading. Phosphate buffer was used as a blank and 2.5-40 μM trolox were used as positive control standards. The final ORAC values were calculated by using a regression equation between the trolox concentration and the net area under the FL decay curve and were expressed as trolox equivalents (TE) as μmole per 100 g of fresh weight (FW) or dry weight (DW).
In both compounds the measured inhibition time was directly proportional to the concentration of the antioxidant. In the tasted concentration range 2.5, 5.0, 10.0 μM of trolox the Tinh were 14.6, 20.9, and 25.5 respectively. For comparison Tinh for 2.5, 5.0, 10.0 μM of hesperidin were 26.8, 45.0 and 62.5 min respectively. […] In ORAC assay Tinh measures the ability of antioxidant components in test materials to inhibit the decline in disodium fluorescein (FL) fluorescence that is induced by the peroxyl radical generator 2′,2′-Azobis (2-amidinopropane) dihydrochloride (AAPH). Tinh for 10 μM of hesperidin and 10 μM of trolox were 62.5 and 23.5 min respectively. […] Higher correlation was observed between Hesperidin concentration and its antioxidant capacity.

| SMILES | Tinh (inhibition time, antioxidant capacity) (2.5 μM) [min] | Tinh (inhibition time, antioxidant capacity) (5.0 μM) [min] | Tinh (inhibition time, antioxidant capacity) (10 μM) |
| --- | --- | --- | --- |
| Cc1c(C)c2c(c(C)c1O)CCC(C)(C(=O)O)O2 (stereo not drawn) [trolox, 6-hydroxy-2,5,7,8,-tetramethylchroman-2-carboxylic acid] | 14.6 | 20.9 | 25.5 min and 23.5 min |
| COc1ccc([C@@H]2CC(=O)c3c(O)cc(O[C@@H]4O[C@H](CO[C@@H]5O[C@@H](C)[C@H](O)[C@@H](O)[C@H]5O)[C@@H](O)[C@H](O)[C@H]4O)cc3O2)cc1O [hesperidin] | 26.8 | 45.0 | 62.5 min |
